In patent US8178548B2, “Anti-infective agents and uses thereof” (priority 2007, dated 2012):
Where two headings read alike, the source gives them in different places.

Legend:
[1] = system: genotype 1a-H77 subgenomic replicon cell line; assay: HCV Polymerase Replicon Assay, genotype 1a-H77 (luciferase reporter); type: cell-based; details: read-out: EC50 1a
[2] = system: genotype 1b-Con1 subgenomic replicon cell line; assay: HCV Polymerase Replicon Assay, genotype 1b-Con1 (luciferase reporter); type: cell-based; details: read-out: EC50 1b
[3] = molecular target: T1, HCV polymerase 1A (Δ21 NS5B, H77) (Hepatitis C virus genotype 1a, UniProt P27958); assay: biochemical
T1 construct: 20 to 50 nM Δ21 NS5B
T1 sequence (P27958 2421-2990, stated change not applied): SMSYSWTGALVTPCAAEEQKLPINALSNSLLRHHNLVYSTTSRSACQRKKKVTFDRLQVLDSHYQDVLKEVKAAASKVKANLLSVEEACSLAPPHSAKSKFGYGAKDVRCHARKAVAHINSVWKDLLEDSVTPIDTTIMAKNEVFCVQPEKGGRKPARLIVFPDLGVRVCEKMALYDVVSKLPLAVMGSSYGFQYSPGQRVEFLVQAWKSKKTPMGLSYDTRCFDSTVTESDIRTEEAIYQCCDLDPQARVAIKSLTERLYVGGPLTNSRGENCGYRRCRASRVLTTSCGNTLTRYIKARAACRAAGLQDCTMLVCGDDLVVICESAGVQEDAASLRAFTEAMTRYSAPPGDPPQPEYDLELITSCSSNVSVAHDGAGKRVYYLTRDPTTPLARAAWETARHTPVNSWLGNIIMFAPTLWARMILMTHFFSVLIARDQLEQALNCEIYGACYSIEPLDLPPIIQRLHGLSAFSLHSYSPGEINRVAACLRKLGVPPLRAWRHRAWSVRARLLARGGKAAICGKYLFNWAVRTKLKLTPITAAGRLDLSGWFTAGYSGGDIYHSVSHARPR
Description: (§1) Either two-fold serial dilutions (fractional inhibition assay) or a narrower range of dilutions spanning the IC50 of the inhibitor (tight binding assay) of the inhibitors were incubated with 20 mM Tris-Cl pH 7.4, 2 mM MnCl2, 1 mM dithiothreitol, 1 mM ethylene diamine tetraacetic acid (EDTA), 60 to 125 μM GTP and 20 to 50 nM Δ21 NS5B (HCV Strain 1B (BK, Genbank accession number M58335, or H77, Genbank accession number AF011751)) for 15 min at room temperature. The reaction was initiated by the addition of 20 μM CTP, 20 μM ATP, 1 μM ^3H-UTP (10 mCi/umol), 5 nM template RNA and 0.1 U/μl RNase inhibitor (RNasin, Promega), and allowed to proceed for 2 to 4 h at room temperature. Reaction volume was 50 μl. The reaction was terminated by the addition of 1 volume of 4 mM spermine in 10 mM Tris-Cl pH 8.0, 1 mM EDTA. After incubation for at least 15 min at room temperature, the precipitated RNA was captured by filtering through a GF/B filter (Millipore) in a 96 well format. The filter plate was washed three times with 200 μl each of 2 mM spermine, 10 mM Tris-Cl pH 8.0, 1 mM EDTA, and 2 times with ethanol. After air-drying, 30 μl of Microscint 20 scintillation cocktail (Packard) was added to each well, and the retained cpm were determined by scintillation counting. […] Retained cpm were plotted vs. inhibitor concentration and fit to equation 1 using non-linear regression (ref. 1) to obtain the IC50 values: Retained cpm=A[sqrt{(IC50+It−Et)^2+4*IC50*Et}−(IC50+It−Et)]
(§2) Ref. Morrison, J. F. and S. R. Stone. 1985. Approaches to the study and analysis of the inhibition of enzymes by slow- and tight-binding inhibitors. Comments Mol. Cell. Biophys. 2: 347-368.
(§3) The sequence of the template RNA used was: 5′-[…] […] […] […] […] […] […] […] […] […] […] […] […] […] […] […] […]-3′ (SEQ ID NO:1).

[4] = molecular target: T2, HCV polymerase 1B (Δ21 NS5B, HCV Strain 1B BK) (Hepatitis C virus genotype 1b, UniProt P26663); assay: biochemical
T2 construct: 20 to 50 nM Δ21 NS5B
T2 sequence (P26663 2420-2989, stated change not applied): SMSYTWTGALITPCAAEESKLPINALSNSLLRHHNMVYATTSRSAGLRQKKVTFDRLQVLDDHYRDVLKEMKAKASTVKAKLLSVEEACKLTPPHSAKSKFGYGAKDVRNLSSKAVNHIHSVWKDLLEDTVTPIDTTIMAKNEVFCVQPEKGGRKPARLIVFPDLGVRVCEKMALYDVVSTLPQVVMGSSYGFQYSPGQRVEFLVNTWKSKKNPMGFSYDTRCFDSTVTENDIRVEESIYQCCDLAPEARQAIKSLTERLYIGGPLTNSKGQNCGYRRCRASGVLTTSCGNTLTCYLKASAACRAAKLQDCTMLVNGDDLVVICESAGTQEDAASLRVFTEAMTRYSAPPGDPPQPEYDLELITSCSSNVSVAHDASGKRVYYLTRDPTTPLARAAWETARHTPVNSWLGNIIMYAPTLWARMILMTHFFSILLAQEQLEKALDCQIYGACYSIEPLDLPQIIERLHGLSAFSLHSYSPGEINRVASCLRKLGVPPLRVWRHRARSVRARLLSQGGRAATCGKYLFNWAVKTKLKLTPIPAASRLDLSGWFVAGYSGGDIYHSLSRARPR
Description: as §1, §2, §3

[5] = Hepatitis C virus, 72 h, replicon 1a-H77, luciferase, three days
[6] = Hepatitis C virus, 72 h, replicon 1b-Con1, luciferase, three days

Compound | EC50 ([1]; Hepatitis C virus, 72 h) | EC50 ([2]; Hepatitis C virus, 72 h) | IC50 [3] | IC50 [4] | EC50 ([1]; replicon 1a-H77, luciferase, three days) | EC50 ([2]; replicon 1b-Con1, luciferase, three days) | IC50 ([3]; HCV polymerase 1a, read-out: IC50 1a) | IC50 ([4]; HCV polymerase 1b, read-out: IC50 1b) | EC50 [1, 5] | EC50 [2, 6]
COc1c(/C=C(\C)c2ccc([N+](=O)[O-])cc2)cc(N2CCC(=O)NC2=O)cc1C(C)(C)C [IA-L1-1.24, 1-{3-tert-butyl-4-methoxy-5-[(E)-2-(4-nitro-phenyl)-propenyl]-phenyl}-dihydro-pyrimidine-2,4-dione] | > 1000 nM | > 1000 nM | > 1000 nM | > 1000 nM | – | – | – | – | – | –
COc1c(/C=C/c2ccc(NS(C)(=O)=O)c(F)c2)cc(N2CCC(=O)NC2=O)cc1C(C)(C)C [IA-L1-1.26, (E)-N-(4-(3-tert-butyl-5-(2,4-dioxotetrahydropyrimidin-1(2H)-yl)-2-methoxystyryl)-2-fluorophenyl)methanesulfonamide] | 10 to 100 nM | 10 to 100 nM | 10 to 100 nM | 10 to 100 nM | – | – | – | – | – | –
COc1cc(NS(C)(=O)=O)ccc1/C=C/c1cc(N2CCC(=O)NC2=O)cc(C(C)(C)C)c1OC [IA-L1-1.27, N-(4-{(E)-2-[3-tert-Butyl-5-(dioxo-tetrahydro-pyrimidin-1-yl)-2-methoxy-phenyl]-vinyl}-3-methoxy-phenyl)-methanesulfonamide] | – | – | – | – | 10 to 100 nM | < 10 nM | < 10 nM | 10 to 100 nM | – | –
COc1c(CCc2ccc(NS(C)(=O)=O)cc2)cc(N2CCC(=O)NC2=O)cc1C(C)(C)C [IA-L5-2-1.1, N-(4-(3-tert-butyl-5-(2,4-dioxotetrahydropyrimidin-1(2H)-yl)-2-methoxyphenethyl)phenyl)methanesulfonamide] | – | – | 10 to 100 nM | 10 to 100 nM | – | – | – | – | 100 to 1000 nM | 10 to 100 nM
CC(C)(C)c1cc(CCc2ccc(NS(C)(=O)=O)cc2)cc(N2CCC(=O)NC2=O)c1 [IA-L5-2-1.2, N-(4-(3-tert-butyl-5-(2,4-dioxotetrahydropyrimidin-1(2H)-yl)phenethyl)phenyl)methane sulfonamide] | – | – | 10 to 100 nM | 10 to 100 nM | – | – | – | – | 100 to 1000 nM | 100 to 1000 nM
COc1c(C2CC2c2ccc(NS(C)(=O)=O)cc2)cc(N2CCC(=O)NC2=O)cc1C(C)(C)C (stereo not shown) [IA-L8-1.1, N-(4-(2-(3-tert-butyl-5-(2,4-dioxotetrahydropyrimidin-1(2H)-yl)-2-methoxyphenyl)cyclopropyl)phenyl)methanesulfonamide] | – | – | 100 to 1000 nM | 100 to 1000 nM | – | – | – | – | 100 to 1000 nM | 100 to 1000 nM
COc1c(/C=C/c2ccc(NS(C)(=O)=O)cc2)cc(-n2ccc(=O)[nH]c2=O)cc1C(C)(C)C [IB-L1-1.1, (E)-N-(4-(3-tert-butyl-5-(2,4-dioxo-3,4-dihydropyrimidin-1(2H)-yl)-2-methoxystyryl)phenyl)methanesulfonamide] | < 10 nM | < 10 nM | < 10 nM | < 10 nM | – | – | – | – | – | –
COc1c(/C=C/c2ccc(NS(C)(=O)=O)cc2C(=O)O)cc(-n2ccc(=O)[nH]c2=O)cc1C(C)(C)C [IB-L1-1.4, (E)-2-(3-tert-butyl-5-(2,4-dioxo-3,4-dihydropyrimidin-1(2H)-yl)-2-methoxystyryl)-5-(methylsulfonamido)benzoic Acid] | 10 to 100 nM | < 10 nM | < 10 nM | < 10 nM | – | – | – | – | – | –
COc1c(/C=C/c2ccc(NS(C)(=O)=O)c(F)c2)cc(-n2ccc(=O)[nH]c2=O)cc1C(C)(C)C [IB-L1-1.5, (E)-N-(4-(3-tert-butyl-5-(2,4-dioxo-3,4-dihydropyrimidin-1(2H)-yl)-2-methoxystyryl)-2-fluorophenyl)methanesulfonamide] | 10 to 100 nM | < 10 nM | < 10 nM | < 10 nM | – | – | – | – | – | –
COc1c(/C=C/c2ccc(NS(C)(=O)=O)cc2C=O)cc(-n2ccc(=O)[nH]c2=O)cc1C(C)(C)C [IB-L1-1.6, N-(4-{(E)-2-[3-tert-Butyl-5-(2,4-dioxo-3,4-dihydro-2H-pyrimidin-1-yl)-2-methoxy-phenyl]-vinyl}-3-formyl-phenyl)-methanesulfonamide] | < 10 nM | < 10 nM | < 10 nM | 10 to 100 nM | – | – | – | – | – | –
